Measured values published in the NIST ThermoML archive (doi:10.1016/j.jct.2015.11.012).
± gives the expanded uncertainty stated by the source.

Experiment: xn = mol fraction of the nth substance listed
Settings: 100 kPa, Liquid; for viscosity: Capillary tube (Ostwald / Ubbelohde) method; for speed of sound: Frequency=2 MHz, Linear variable-path acoustic interferometer; for mass density: Vibrating tube method

OCCCl [1-chloro-2-hydroxyethane] + Nc1cccc(Cl)c1
Settings	mass density, 303.15 K [kg/m3]	mass density, 308.15 K [kg/m3]	speed of sound, 303.15 K [m/s]	speed of sound, 308.15 K [m/s]	viscosity, 303.15 K [mPa·s]	viscosity, 308.15 K [mPa·s]
x2 = 0	1192.12 ± 4	1186.63 ± 4	1342.8 ± 8.2	1328.5 ± 8.1	2.578 ± 1	2.259 ± 1
x2 = 0.0844	1194.38 ± 4	1189.08 ± 4	1365.5 ± 8.3	1351.3 ± 8.2	2.728 ± 1	2.402 ± 1
x2 = 0.1759	1196.5 ± 4	1191.33 ± 4	1388.6 ± 8.5	1374.1 ± 8.4	2.888 ± 1	2.553 ± 1
x2 = 0.2675	1198.32 ± 4	1193.26 ± 4	1410 ± 8.6	1395.1 ± 8.5	3.046 ± 1	2.703 ± 1
x2 = 0.3622	1199.9 ± 4	1194.92 ± 4	1430.2 ± 8.7	1415 ± 8.6	3.207 ± 1	2.855 ± 1
x2 = 0.4808	1201.48 ± 4	1196.62 ± 4	1452.7 ± 8.9	1437.1 ± 8.8	3.408 ± 1	3.045 ± 1
x2 = 0.5814	1202.58 ± 4	1197.79 ± 4	1469.7 ± 9	1454 ± 8.9	3.576 ± 1	3.203 ± 1
x2 = 0.6862	1203.51 ± 4	1198.8 ± 4	1484.7 ± 9.1	1469.2 ± 9	3.749 ± 1	3.367 ± 1
x2 = 0.7938	1204.28 ± 4	1199.65 ± 4	1498 ± 9.1	1482.5 ± 9	3.925 ± 1	3.532 ± 1
x2 = 0.8902	1204.84 ± 4	1200.24 ± 4	1508.2 ± 9.2	1492.7 ± 9.1	4.081 ± 1	3.679 ± 1
